Laboratory results published in article PMC7763088, “Impact of Different Lipid Ligands on the Stability and IgE-Binding Capacity of the Lentil Allergen Len c 3” (Biomolecules, 2020).
Like-named read-outs stand apart in the source and are kept apart here.

Columns and labels:
[1] = target: T1, rLen c 3 (Lens culinaris, UniProt A0AT29); set-up: method as in PMID 28266846; details: among saturated FAs; cited from earlier work
T1 construct: with the formation of the large fragment 1–80 and the protein without C-terminal Phe93; His8-TrxL (octahistidine-thioredoxin carrier) (N, cleaved yes); made in house; host or cells: Escherichia coli BL-21 (DE3)
T1 sequence (A0AT29 26-118): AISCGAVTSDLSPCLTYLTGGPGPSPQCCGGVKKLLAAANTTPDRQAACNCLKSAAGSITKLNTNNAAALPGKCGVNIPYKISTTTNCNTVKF

[2] = target: T1, rLen c 3; assay: Effect of lipid ligands on secondary structure and thermostability of rLen c 3 (CD spectroscopy); type: physicochemical, lentil; details: for Effect of ligand on rLen c 3 thermostability (resistance to thermal denaturation): heating up to 98.5 °C; for Effect of ligand on rLen c 3 thermostability (resistance to thermal denaturation) / Recovery of rLen c 3 structure after cooling down in the presence of ligand: pH 7.4, ligand 1 mM; for Recovery of rLen c 3 structure after cooling down in the presence of ligand: cooling down to 20 °C after 98.5 °C
Experimental: Circular dichroism spectra were recorded at different temperatures, using a J-810 spectropolarimeter (Jasco, Hachioji, Tokyo, Japan) in a 0.1 cm path length quartz cell (Hellma GmbH & Co. KG, Mullheim, Germany) in the 190–250 nm range, and 0.2, using solutions of rLen c 3 in 10 mM phosphate buffer, pH 7.4, or 150 mM sodium chloride, pH 2.5, simulated gastric fluid, at a concentration of 17 µM. Fatty acids or lysolipids were added at a final concentration of 1 mM. Each experiment was performed twice, independently.

[3] = target: T1, rLen c 3; assay: Effect of lipid ligands on gastrointestinal digestion of rLen c 3; type: in vitro ADME, lentil; details: for Effect of ligand on rLen c 3 degradation rate (proteolytic digestion): gastric then duodenal digestion
Experimental: (§1) Simulation of gastrointestinal digestion in vitro was performed as described in [15]. Briefly, gastric digestion was performed for 2 h, using 50 ng of pepsin (p) (Sigma) per 1 μg of rLen c 3 in 0.1 M HCl, pH 2.0 (final protein concentration 0.05 mM). For duodenal digestion, pH of the mixture resulting from gastric digestion was adjusted to 8.0 by addition of ammonium bicarbonate. The obtained mixture was incubated for 24 h at 37 °C with 2.5 ng of trypsin (t) (Promega, Madison, WI, USA) and 10 ng of α-chymotrypsin (ch) (Sigma) per 1 μg of the substrate. Degree of proteolysis was monitored by sodium dodecyl sulfate polyacrylamide gel electrophoresis (SDS-PAGE) under reducing conditions and reversed-phase high-performance liquid chromatography (RP-HPLC) on Luna C18 column (5 μm, 250 × 4.6 mm; Phenomenex, Torrance, CA, USA) at a flow rate of 0.5 mL/min, using a gradient of acetonitrile concentration from 5 to 65% for 45 min in 0.1% trifluoroacetic acid (TFA). Gel analysis was performed, using a densitometer. Electroblotting and subsequent N-terminal protein sequencing were performed as described. The protein was preheated at 100 °C for 30 min to study the effect of temperature on allergen stability. rLen c 3 was preloaded with various lipid ligands (LTP to lipid molar ratio 1:4) for 10 min, in order to investigate their effects on allergen resistance to proteolytic digest. As a control of the influence of lipid ligands on the work of proteolytic enzymes, the same reactions were carried out, using bovine α-casein (Sigma) as a substrate. Some independent experiments were performed in each case.

[4] = target: T1, rLen c 3; assay: TNS displacement lipid binding assay; set-up: species or system lentil; details: for IC50: 25 °C, 4 μM TNS, 4 μM rLen c 3; for Change of rLen c 3 affinity for the ligand at acidic pH: pH 2.5 compared with pH 7.4
Experimental: The ability of rLen c 3 to bind lipids was assayed by monitoring the displacement of the fluorescent probe TNS. Fluorescence intensity was measured at 25 °C with a F-2710 spectrofluorimeter (Hitachi, Tokyo, Japan), using a […] slit width for both excitation (λ = 320 nm) and emission (λ = 437 nm) and the measurement taken for no longer than 1.5–2 s. After equilibrating TNS (4 μM) in 10 mM phosphate buffer, pH 7.4, or 150 mM sodium chloride, pH 2.5, for 2 min with gentle mixing, the 2 mM of competing ligand was titrated into the 2 mL of 4 μM rLen c 3 solution in 1 μL aliquots. The resulting data were fitted by using a sigmoidal curve-fitting in GraphPad Prism from which the concentration able to displace 50% of the TNS (IC50) was calculated. The dependence of the ligand binding on temperature was performed at 20, 40, 60, 90, and 20 °C, after cooling down as previously described. Temperature was checked with a temperature probe in the cuvette. Each experiment was performed in triplicate, independently.

[5] = system: pepsin; assay: In vitro gastric digestion (SDS-PAGE); type: in vitro ADME; details: first 5 min; control substrate
Experimental: as §1, with “As a control of the influence of lipid ligands on the work of proteolytic enzymes, the same reactions were carried out, using bovine α-casein (Sigma) as a substrate. Some independent experiments were performed in each case.” left out

[6] = 10 mM phosphate buffer, pH 7.4, read-out: IC50 (TNS displacement)
[7] = 150 mM sodium chloride, pH 2.5, read-out: IC50 (TNS displacement)

## CCCCCCCCCCCCCCCCCCCC(=O)O [ARA, arachidic C20:0]
[1]
  Binding capacity / affinity of Len c 3 for saturated fatty acids: lower affinity

## CCCCCCCCCCCCCCCCCCCCCC(=O)O [BEH, behenic (docosanoic) acid]
[2]
  Effect of ligand on rLen c 3 thermostability (resistance to thermal denaturation): slight protective effect
[3]; LTP to lipid molar ratio 1:4
  Effect of ligand on rLen c 3 degradation rate (proteolytic digestion): slightly accelerated the allergen proteolysis
[4]; [6]
  IC50: 5.9 ± 0.2 µM
[4]; [7]
  IC50: 6.2 ± 0.1 µM
[1]
  Binding capacity / affinity of Len c 3 for saturated fatty acids: lower affinity

## CCCCCCCC/C=C\CCCCCCCC(=O)O [OLE, oleic acid]
[2]
  Recovery of rLen c 3 structure after cooling down in the presence of ligand: partial protein renaturation
  Effect of ligand on rLen c 3 thermostability (resistance to thermal denaturation): increased the rLen c 3 thermostability
[3]; 24 h of duodenal digestion, LTP to lipid molar ratio 1:4
  Degradation of rLen c 3 in the presence of ligand: ~ 55%
[3]; LTP to lipid molar ratio 1:4
  Effect of ligand on rLen c 3 degradation rate (proteolytic digestion): more pronounced
[4]; [6]
  IC50: 2.4 ± 0.1 µM
[4]; [7]
  IC50: 2.6 ± 0.1 µM
[4]
  Change of rLen c 3 affinity for the ligand at acidic pH: decreased

## CCCCCCCCCCCC(=O)O [LAU, lauric acid]
[2]
  Effect of ligand on rLen c 3 thermostability (resistance to thermal denaturation): slight protective effect
[3]; LTP to lipid molar ratio 1:4
  Effect of ligand on rLen c 3 degradation rate (proteolytic digestion): quickly digested by trypsin/chymotrypsin
[4]; [6]
  IC50: 2.1 ± 0.2 µM
[4]; [7]
  IC50: 2.1 ± 0.01 µM
[4]
  Change of rLen c 3 affinity for the ligand at acidic pH: remained unchanged
[1]
  Binding capacity / affinity of Len c 3 for saturated fatty acids: highest binding capacities

## CCCCCCCCCCCCCCCCCC(=O)O [STE, stearic acid]
[2]
  Recovery of rLen c 3 structure after cooling down in the presence of ligand: partial protein renaturation
  Effect of ligand on rLen c 3 thermostability (resistance to thermal denaturation): increased the rLen c 3 thermostability
[3]; LTP to lipid molar ratio 1:4
  Effect of ligand on rLen c 3 degradation rate (proteolytic digestion): slowed down the allergen degradation
[4]; IC50 (TNS displacement), 10 mM phosphate buffer, pH 7.4
  IC50: 4.5 ± 0.1 µM
[4]; IC50 (TNS displacement), 150 mM sodium chloride, pH 2.5
  IC50: 5.1 ± 0.1 µM
[4]
  Change of rLen c 3 affinity for the ligand at acidic pH: decreased

## CCCCCCCCCCCCCCCC(=O)OC[C@@H](O)COP(=O)([O-])OCC[N+](C)(C)C [LPPC, lyso-palmitoyl phosphatidylcholine]
[2]
  Recovery of rLen c 3 structure after cooling down in the presence of ligand: recovery of the protein structure was not observed
  Effect of ligand on rLen c 3 thermostability (resistance to thermal denaturation): a complete denaturation of the protein did not occur even at 98.5 °C
[2]; pH 7.4, 20 °C, ligand 1 mM
  Effect of ligand on secondary structure of rLen c 3: increased the percentage of α-helices
[3]; after 4 and 24 h, effect more pronounced with LPPC
  Effect of protein preheating before digestion in the presence of ligand on rate of allergen degradation: slightly increased
[3]; LTP to lipid molar ratio 1:4
  Effect of ligand on rLen c 3 degradation rate (proteolytic digestion): to a lesser extent, LPPC slowed down the allergen degradation
[4]; [6]
  IC50: 7.7 ± 0.02 µM
[4]; [7]
  IC50: 7.3 ± 0.01 µM
[4]
  Change of rLen c 3 affinity for the ligand at acidic pH: slightly increased
[4]; pH 7.4, heated from 20 to 90 °C, then cooled down to 20 °C
  Ability of rLen c 3 to bind the ligand after heating and cooling down: not restored

B1: bovine α-casein: bovine α-casein (Sigma), control substrate for proteolytic digestion (protein, UniProt P02662 16-214; P02663 16-222, looked up)
Alpha-S1-casein: RPKHPIKHQGLPQEVLNENLLRFFVAPFPEVFGKEKVNELSKDIGSESTEDQAMEDIKQMEAESISSSEEIVPNSVEQKHIQKEDVPSERYLGYLEQLLRLKKYKVPQLEIVPNSAEERLHSMKEGIHAQQKEPMIGVNQELAYFYPELFRQFYQLDAYPSGAWYYVPLGTQYTDAPSFSDIPNPIGSENSEKTTMPLW
Alpha-S2-casein: KNTMEHVSSSEESIISQETYKQEKNMAINPSKENLCSTFCKEVVRNANEEEYSIGSSSEESAEVATEEVKITVDDKHYQKALNEINQFYQKFPQYLQYLYQGPIVLNPWDQVKRNAVPITPTLNREQLSTSEENSKKTVDMESTEVFTKKTKLTEEEKNRLNFLKKISQRYQKFALPQYLKTVYQHQKAMKPWIQPKTKVIPYVRYL
[5]
  Degradation by pepsin: almost completely degraded
